Here are results for two compounds from ChEMBL document CHEMBL1145137, “Design, synthesis, and crystal structure of selective 2-pyridone tissue factor VIIa inhibitors” (J Med Chem, 2003).

The term IC50 denotes the concentration that gives 50% inhibition.

In one assay the target is Coagulation factor X (Homo sapiens, UniProt P00742). Kind of assay: Inhibitory concentration against human Coagulation factor X.
For a further assay, the target named is Prothrombin (Homo sapiens, UniProt P00734). Kind of assay: Inhibitory concentration against human thrombin.
Another assay has as its target T1, Coagulation factor VII (Homo sapiens, UniProt P08709).
T1 sequence (P08709 whole entry): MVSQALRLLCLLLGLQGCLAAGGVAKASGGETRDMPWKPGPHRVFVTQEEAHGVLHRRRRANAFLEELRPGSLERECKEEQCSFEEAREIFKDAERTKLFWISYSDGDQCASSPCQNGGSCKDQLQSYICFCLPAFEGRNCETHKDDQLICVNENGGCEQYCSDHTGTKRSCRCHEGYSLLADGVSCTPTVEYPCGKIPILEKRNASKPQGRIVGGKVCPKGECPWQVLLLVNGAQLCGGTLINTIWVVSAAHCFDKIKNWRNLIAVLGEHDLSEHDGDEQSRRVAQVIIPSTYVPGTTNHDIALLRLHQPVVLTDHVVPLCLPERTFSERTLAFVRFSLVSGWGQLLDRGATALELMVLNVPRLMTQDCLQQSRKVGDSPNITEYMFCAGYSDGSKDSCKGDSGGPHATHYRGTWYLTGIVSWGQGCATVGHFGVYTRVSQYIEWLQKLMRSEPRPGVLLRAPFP
The assay is described as follows: Inhibitory concentration against recombinant human coagulation factor VII.

Coagulation factor X, sequence (P00742 41-179 limits assumed): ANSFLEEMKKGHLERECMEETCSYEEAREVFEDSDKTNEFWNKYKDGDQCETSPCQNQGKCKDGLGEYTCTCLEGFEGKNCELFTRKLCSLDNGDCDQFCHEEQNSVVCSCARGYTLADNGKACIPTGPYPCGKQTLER
Coagulation factor X, sequence (P00742 235-488 limits assumed): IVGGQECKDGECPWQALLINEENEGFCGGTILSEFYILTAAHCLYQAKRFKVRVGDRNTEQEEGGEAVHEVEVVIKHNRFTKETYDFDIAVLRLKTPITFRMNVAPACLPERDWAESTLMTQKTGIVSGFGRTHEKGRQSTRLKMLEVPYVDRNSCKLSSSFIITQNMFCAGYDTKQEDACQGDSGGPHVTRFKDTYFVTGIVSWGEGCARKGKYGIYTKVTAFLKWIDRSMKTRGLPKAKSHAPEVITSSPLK

As for `CC(C)Nc1ccc(-c2cc(N)cc(C(=O)O)c2)n(CC(=O)NCc2ccc(C(=N)N)cc2)c1=O`, the IC50 at Coagulation factor X is > 30 µM; against Prothrombin, > 30 µM; on Coagulation factor VII, 0.118 µM.
For `CC(C)Nc1ccc(-c2cc(N)cc(N)c2)n(CC(=O)NCc2ccc(C(=N)N)cc2)c1=O`, the IC50 at Coagulation factor VII is 0.052 µM.
